Source: ChEMBL document CHEMBL4808211, “Exploration and Biological Evaluation of Basic Heteromonocyclic Propanamide Derivatives as SARDs for the Treatment of Enzalutamide-Resistant Prostate Cancer” (J Med Chem, 2021)

System: MR49F
Experiment: animal or person
Details: Mus musculus, po, 672 h, read-out: TGI
Description: Antitumor activity against human MR49F cells xenografted in NOD SCID NSG mouse assessed as tumor growth inhibition at 60 mg/kg/day, po measured twice weekly for 28 days relative to control

C[C@](O)(Cn1cc(-c2ccc(F)cc2)nn1)C(=O)Nc1ccc(C#N)c(C(F)(F)F)c1
inhibition in vivo at 60 mg/kg/day: 95%
